Laboratory results taken from patent publication US8106196B2, “Dihydropyrimidine compounds and their uses in manufacture of a medicament for treatment and prevention of viral diseases” (Beijing Molecule Science and Technology Co., Ltd, priority 2007, dated 2012).

Legend:
HBV DNA = assay: Antiviral activity: inhibition of HBV DNA in supernatant of HepG 2.2.15 cells (dot blot hybridization); assay type: cell-based, hepatitis B virus (HBV); conditions: for IC50: Hepatitis B virus, HepG2.2.15, 192 h, HepG 2.2.15 cells, 8 days incubation, hepatitis B-specific band reduced by 50% vs untreated sample, read-out: IC50 (half-maximum inhibitory concentration, HBV DNA); for SI: selectivity index, from TC50 and IC50 in HepG 2.2.15 cells
Experimental: The antiviral activity of the compounds according to the present invention was determined by the methods described by Sells et al. (M. A. Sells, M. L. Chen, g. Acs, Proc. Natl. Acad. Sci., 1987, 84, 1005-1009) and Korba et al., (B. E. Korba, J. L. Gerin, Antiviral Research, 1992, 19. 55-70).
(§1) The antiviral tests were carried out in 96-well microtiter plates. Only growth medium and HepG 2.2.15 cells were added to the first vertical row of the plate as a blank control.
(§2) Stock solutions of the test compounds (50 mM) were first dissolved in DMSO, and further dilutions were prepared in the growth medium of HepG 2.2.15 cell. The compounds according to the present invention, usually in a test concentration of 100 μg/ml (1st test concentration), were pipetted into each well of the second vertical test row of the microtiter plate and subsequently diluted with growth medium plus 2% of foetal calf serum (volume 25 μl) by 2 fold each time, up to 2^10-fold.
225 μl of a HepG 2.2.15 cell suspension (5×10^4 cells/ml) in growth medium plus 2% foetal calf serum were then added to each well of the 96-well microtiter plate.
The test mixture was incubated at 37° C., 5% CO2 for 4 days. The supernatant was subsequently siphoned off and discarded, and 225 μl of freshly prepared growth medium were added to each well. The compounds according to the present invention were added again in a volume 25 μl. The mixture were incubated from another 4 days.
The supernatants were subsequently harvested and siphoned in vacuum onto 96-well dot blot chambers covered with a nylon membrane (in accordance with the instructions of the manufacturer). […]
The viral DNA of the treated HepG 2.2.15 cells on the nylon filter membrane was usually determined using non-radioactive digoxigenin-labelled hepatitis B-specific DNA probes which were in each case labelled with digoxigenin, purified and used for hybridization in accordance with the instructions of the manufacturer.
Briefly speaking, the prehybridization and hybridization were carried out in 5×SSC, 1× blocking agent, 0.1% N-lauroylsacosine, 0.02% SDS and 100 μg of DNA from herring sperm. […] The filler membrane was subsequently washed and the antibodies against digoxigenin of HBV DNA were determined.
The digoxigenin-labeled DNA was detected immunologically in accordance with the instructions of the manufacturer.
Briefly speaking, the filler membrane were washed and prehybridized with a blocking agent (in accordance with the instructions of the manufacturer). […] The chemiluminescent signals of the Hepatitis B-specific DNA were measured by exposing of the filters to an X-ray film (incubation for 10 minutes to 2 hours depending on the signal strength) to determine the half-maximum inhibitory concentration (IC50). […]

[1] = Cytotoxicity in HepG 2.2.15 cells (cell morphology under microscope after 8 days, Reed & Muench); assay type: cell-based; conditions: human, pathological changes after 8 days, read-out: TC50 (half-maximum toxic concentration)
Experimental: as §1
as §2, with “2^10-fold. […]” for “2^10-fold.”
Substances-induced cytotoxic or cytostatic changes in HepG 2.2.15 cells were determined as changes in the cell morphology, for example under an optical microscope. […] The average degree of the pathological change and percent inhibition at each concentration were calculated, and a half-maximum toxic concentration (TC50) and a maximum non-toxic concentration TC0 were determined according to Reed & Muench methods. […]
The cytotoxicity and antiviral activity of the compounds according to the present invention were determined by the methods as described above, and the results were shown in Table 1.

SMILES | IC50 (HBV DNA) [µM] | SI (HBV DNA) | CC50 at 8 days [1] [µM]
COC(=O)C1=C(C)NC(c2cccs2)=NC1c1ccccc1 (stereo not drawn) [Example 4, methyl 2-(thien-2-yl)-4-phenyl-6-methyl-1,4-dihyropyrimidin-5-carboxylate] | 29.6 | 3.56 | 105
COC(=O)C1=C(C)NC(c2cccs2)=NC1c1ccc(F)cc1Cl (stereo not drawn) [Example 1, methyl 2-(thien-2-yl)-4-(2-chloro-4-fluorophenyl)-6-methyl-1,4-dihyropyrimidin-5-carboxylate] | 0.007 | >10^5 | 1100
